pIC50: −log10 of the molar value. Several values for one entry are separate records, joined by “and”; a condition that tells them apart may be missing. Equal entries are not always repeated.
Key:
[1] = molecular target: T1, D3 DAR (Homo sapiens, UniProt P35462); assay: Go BRET activation assay, D3 DAR; assay type: cell-based; conditions: EC80 DA (30 nM); for Emax: 5 min, read-out: D3 Go BRET Imax
Method: Briefly, HEK293T cells transiently expressing either the D2 DAR or D3 DAR and GαoA-Rluc8, untagged-β1, and mVenus-γ2 were harvested with EBSS, plated in 96-well white plates at 20,000 cells/well in DPBS and incubated at RT for 45 min. […] BRET signal was determined by quantifying and calculating the ratio of the light emitted by mVenus (525 nm) over that emitted by RLuc8 (485 nm) using a PHERAstar FSX Microplate Reader (BMG Labtech).

[2] = molecular target: D2 DAR (Homo sapiens, UniProt P14416); assay: DiscoverX D2 DAR β-arrestin recruitment assay; assay type: cell-based; set-up: host or cells: CHO; conditions: for D2 DAR Imax / pIC50: EC80 concentration of DA (1 μM); for antagonism of dopamine activation of the D2 DAR: DiscoverX β-arrestin assay, FIG. 2B
D2 DAR, sequence (P14416 whole entry, the tested form may be a part): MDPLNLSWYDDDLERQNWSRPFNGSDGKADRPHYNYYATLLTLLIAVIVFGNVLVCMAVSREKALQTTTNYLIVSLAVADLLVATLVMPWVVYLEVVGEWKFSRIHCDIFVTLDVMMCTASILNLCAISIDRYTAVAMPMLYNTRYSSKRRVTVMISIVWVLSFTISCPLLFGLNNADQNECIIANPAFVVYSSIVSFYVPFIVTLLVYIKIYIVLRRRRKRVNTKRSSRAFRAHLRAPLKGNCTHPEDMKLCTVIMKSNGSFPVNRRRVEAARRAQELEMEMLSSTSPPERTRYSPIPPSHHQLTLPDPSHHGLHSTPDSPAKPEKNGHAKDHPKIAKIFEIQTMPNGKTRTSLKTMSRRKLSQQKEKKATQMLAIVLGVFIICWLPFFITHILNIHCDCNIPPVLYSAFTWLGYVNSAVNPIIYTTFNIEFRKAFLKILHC
From the text: For a secondary-screen and selectivity assays, DAR PathHunter®-arrestin GPCR cell lines from DiscoverX (Fremont, CA) were used. In the D2 DAR PathHunter®-arrestin GPCR cell line, the D2 DAR is overexpressed and fused with a small 42-amino acid fragment of β-galactosidase called ProLink™ on a CHO cellular background expressing a fusion protein of β-arrestin and a larger N-terminal deletion mutant of β-galactosidase (“enzyme acceptor”). When the D2 DAR is activated by dopamine, it stimulates binding of β-arrestin to the ProLink-tagged DAR and the two complementary parts of β-galactosidase form a functional enzyme. When substrate (PathHunter™ Detection reagent) is added, β-galactosidase hydrolyzes it and generates a chemiluminescent signal.

[3] = molecular target: T1, D3 DAR; assay: DiscoverX D3 DAR β-arrestin recruitment assay; assay type: cell-based; set-up: host or cells: CHO; conditions: for Emax / D3 DAR Imax: Imax=maximum inhibition, EC80 DA (30 nM)
From the text: (§1) A D3 DAR β-arrestin cell line from DiscoverX (Fremont, CA) was used as described in the protocol below (Table 2). A CHO cell line engineered to overexpress the D3 DAR fused with a small 42-amino acid fragment of β-galactosidase called ProLink™ and a fusion protein consisting of β-arrestin and a larger N-terminal deletion mutant of β-galactosidase was used (DiscoverX catalogue number 93-0579C2). When the D3 DAR is activated by dopamine, it stimulates binding of β-arrestin to ProLink-tagged D3 DARs, and the two complementary parts of β-galactosidase form a functional enzyme. When substrate (PathHunter® Detection reagent, DiscoverX 93-0001) is added, β-galactosidase hydrolyzes it and generates a chemiluminescent signal.

[4] = molecular target: T1, D3 DAR; assay: Functional curve-shift assays using the DiscoverX β-arrestin recruitment assay; assay type: cell-based; set-up: host or cells: CHO; conditions: for pIC50: agonist dopamine, read-out: Functional IC50 for decreasing the Emax of dopamine; for mode of antagonism in curve-shift assays: versus agonist (dopamine, pramipexole)
From the text: To further assess the mechanism of action of Cmp. […] 1 (FIGS. 4B and 4D). […] Average curves are shown (mean±SEM from at least 3 experiments each performed in triplicate). […] In contrast, increasing concentrations of Cmp.
1. FIG. 6A-C panels show concentration-response curves of dopamine in the absence or presence of increasing concentrations of compound. Cmp. […] 18 (FIG. 6A), Cmp. 5 (FIG. 6B), and Cmp. 17 (FIG. 6C), respectively. Average curves are shown (mean±SEM from at least 3 experiments, each performed in triplicate).
as §1

[5] = molecular target: T1, D3 DAR; assay: [3H]-methylspiperone radioligand binding assay; conditions: single high 40 μM concentration
Method: Compounds were tested for their ability to compete with the orthosteric radioligand [^3H]-methylspiperone for binding to the D3 DAR using HEK cells transiently transfected with the D3 DAR as described in the detailed protocol below presented in Table 5. Cells were cultured in Dulbecco's modified Eagle's Medium (Corning, catalogue no. 10-013) containing 10% FBS, 1,000 units/mL Penicillin, […] Streptomycin, 100 mM sodium pyruvate, 1 μg/mL Gentamicin, and […] G418. All cells were maintained at 37° C. in 5% CO2 and 90% humidity. For radioligand binding assays cells were removed mechanically using calcium-free Earle's balanced salt solution (EBSS). Intact cells were collected by centrifugation and then lysed with 5 mM Tris-HCl and 5 mM MgCl2 at pH 7.4. Homogenates were centrifuged at 30,000×g for 30 minutes. The membranes were re-suspended in EBSS (US Biological, catalogue no. E0249-05) pH 7.4 to a concentration of 16 μg/mL. For competition binding studies, membrane preparations were incubated for 90 minutes at room temperature with various concentrations of compound and a single concentration of [^3H]-methylspiperone (Perkin Elmer, NET856) in a reaction volume of […]. Non-specific binding was determined in the presence of 4 μM (+)-butaclamol (Sigma-Aldrich, catalogue no. D033). Bound ligand was separated from unbound by filtration through GF/C filters using a PerkinElmer cell harvester and quantified on a Top-count (PerkinElmer). Ki values were determined using Cheng-Prusoff equation from observed IC50 values and ligand Kd values from separate saturation experiments.

[6] = EC80 concentration of DA (30 nM), read-out: D3 DAR IC50
[7] = DiscoverX β-arrestin assay, FIG. 1A, 2A, read-out: IC50, inhibition of dopamine-stimulated β-arrestin recruitment to the D3 DAR

T1 sequence (P35462 whole entry): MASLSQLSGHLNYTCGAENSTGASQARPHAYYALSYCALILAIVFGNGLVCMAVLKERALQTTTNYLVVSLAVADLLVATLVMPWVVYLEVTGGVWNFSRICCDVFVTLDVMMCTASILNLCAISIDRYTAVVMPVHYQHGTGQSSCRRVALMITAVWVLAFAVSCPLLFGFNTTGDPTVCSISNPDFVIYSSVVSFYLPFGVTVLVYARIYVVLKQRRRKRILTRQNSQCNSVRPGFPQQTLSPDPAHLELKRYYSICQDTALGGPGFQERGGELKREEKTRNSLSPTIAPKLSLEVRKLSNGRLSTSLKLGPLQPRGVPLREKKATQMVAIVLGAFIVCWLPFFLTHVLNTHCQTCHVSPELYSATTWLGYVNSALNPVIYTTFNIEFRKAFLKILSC

Compound	Emax [1]	pIC50 [1]	D2 DAR Imax [2]	pIC50 [2]	pIC50 [3, 6]	Emax [3]	pIC50 [4]	mode of antagonism in curve-shift assays [4]	antagonism of dopamine activation of the D2 DAR [2]	inhibition of [3H]-methylspiperone binding to the D3 DAR [5]	pIC50 [3, 7]	D3 Go BRET Imax [1]	D3 DAR Imax [3]
Cc1[nH]c(C)c(S(=O)(=O)Nc2ccc(C(F)(F)F)c(Br)c2)c1C(=O)N1CCCC1 [Cmp. 18]	80 to 100%	< 4.30	NA (“NA” indicates not active)	< 4.00	> 5.00	80 to 100%	5.44	noncompetitive antagonism					
CCOC(=O)C1=NOC2(C1)C(=O)Nc1ccc(OC(F)(F)F)cc12 (racemic) [Cmp. 25, Ethyl 2-oxo-5-(trifluoromethoxy)-4′H-spiro[indoline-3,5′-isoxazole]-3′-carboxylate]		< 4.30	NA (“NA” indicates not active)	< 4.00	4.30 to 5.00	80 to 100%			lacks ability to antagonize dopamine activation	neither compound exhibited measurable ability to inhibit the binding	~4.89 and ~4.82		
Cc1[nH]c(C)c(S(=O)(=O)Nc2ccc(C(F)(F)F)c(Cl)c2)c1C(=O)N1CCCC1 [Cmp. 5]	80 to 100%	5.00 to 6.00	NA (“NA” indicates not active)	< 4.00	> 5.00	80 to 100%	5.64	noncompetitive antagonism					
Cc1cccc(CNC(=O)c2sc(=O)n(Cc3c(C)cccc3C)c2C)c1 [Cmp. 26]			NA (“NA” indicates not active)	< 4.00	4.30 to 5.00	80 to 100%			lacks ability to antagonize dopamine activation	neither compound exhibited measurable ability to inhibit the binding	~4.52		
CCN1CCCC1CNC(=O)c1cc(S(N)(=O)=O)ccc1OC (stereo not shown) [sulpiride, reference compound]								behaves in a competitive manner					
Cc1ccc(NS(=O)(=O)c2c(C)[nH]c(C)c2C(=O)N2CCCC2)cc1C [compound 12]		< 4.30	NA (“NA” indicates not active)	< 4.00	4.30 to 5.00	80 to 100%							
Cc1[nH]c(C)c(S(=O)(=O)Nc2ccc(F)c(Cl)c2)c1C(=O)N1CCCC1 [compound 13]	> 100%	4.30 to 5.00	NA (“NA” indicates not active)	< 4.00	4.30 to 5.00	80 to 100%							
Cc1[nH]c(C)c(S(=O)(=O)Nc2ccc(C3CC3)c(Cl)c2)c1C(=O)N1CCC(F)(F)C1 [compound 36, N-(3-chloro-4-cyclopropylphenyl)-4-(3,3-difluoropyrrolidine-1-carbonyl)-2,5-dimethyl-1H-pyrrole-3-sulfonamide]	80 to 100%	5.00 to 6.00	NA (“NA” indicates not active)	< 4.00	4.30 to 5.00	80 to 100%							
Cc1[nH]c(C)c(S(=O)(=O)Nc2ccc(C(F)(F)F)c(Cl)c2)c1C(=O)N(C)C [compound 21, 4-(n-(3-chloro-4-(trifluoromethyl)phenyl)sulfamoyl)-N,N,2,5-tetramethyl-1H-pyrrole-3-carboxamide]	> 100%	4.30 to 5.00	NA (“NA” indicates not active)	< 4.00	> 5.00	80 to 100%							
CCOC(=O)C1=NOC2(C1)C(=O)Nc1ccc(OC(F)(F)F)cc12 (stereo not shown) [compound 44]		< 4.30	NA (“NA” indicates not active)	< 4.00	> 5.00	80 to 100%						NA (NA means not active)	
CCc1[nH]c(CC)c(S(=O)(=O)Nc2ccc(C(F)(F)F)c(Cl)c2)c1C(=O)N1CCCC1 [compound 39, N-(3-chloro-4-(trifluoromethyl)phenyl)-2,5-diethyl-4-(pyrrolidine-1-carbonyl)-1H-pyrrole-3-sulfonamide]	> 100%	5.00 to 6.00	NA (“NA” indicates not active)	< 4.00	4.30 to 5.00	80 to 100%							
Cc1[nH]c(C)c(S(=O)(=O)Nc2ccc(S(F)(F)(F)(F)F)cc2)c1C(=O)N1CCC(F)(F)C1 [compound 28]	80 to 100%	5.00 to 6.00	NA (“NA” indicates not active)	< 4.00	> 5.00	80 to 100%							
N-(3-choro-4-methylphenyl)-2,5-dimethyl-4-(pyrrolidine-1-carbonyl)-1H-pyrrole-3-sulfonamide [compound 31]		4.30 to 5.00	Curve Incomplete	< 4.00	< 4.00							++ (a “++” indicates a detectable Imax of more than 100%, indicative of possible inverse agonist activity)	Curve Incomplete
[2H]C1([2H])CCC([2H])([2H])N1C(=O)c1c(C)[nH]c(C)c1S(=O)(=O)Nc1ccc(C(F)(F)F)c(Cl)c1 [compound 23]	> 100%	5.00 to 6.00	NA (“NA” indicates not active)	< 4.00	> 5.00	80 to 100%							
Cc1ccc(CNS(=O)(=O)c2c(C)[nH]c(C)c2C(=O)N2CCCC2)cc1Cl [compound 9]		< 4.30	NA (“NA” indicates not active)	< 4.00	4.00 to 4.30							NA (NA means not active)	Curve Incomplete
